IC50 data for 25 compounds are collected here from patent publication US10112940B2, “Histone demethylase inhibitors” (Celgene Quanticel Research, Inc., priority 2014, dated 2018).

One assay has as its target JMJD2C (Homo sapiens (Human), UniProt Q9H3R0). Put plainly: JMJD2C in vitro enzyme inhibition assay (TR-FRET). The format is biochemical. To be noted: 0.3 nM JMJD2C, 300 nM H3K9me3-biotin peptide, 2 μM alpha-ketoglutaric acid, 30 minutes. The protocol: This assay determines the ability of a test compound to inhibit JMJD2C demethylase activity. Baculovirus expressed JMJD2C (GenBank Accession #BC143571, AA 2-372) was purchased from BPS Bioscience (Cat#50105).
The ability of test compounds to inhibit the activity of JMJD2C was determined in 384-well plate format under the following reaction conditions: 0.3 nM JMJD2C, 300 nM H3K9me3-biotin labeled peptide (Anaspec cat #64360), 2 μM alpha-ketoglutaric acid in assay buffer of 50 mM HEPES, pH7.3, 0.005% Brij35, 0.5 mM TCEP, 0.2 mg/ml BSA, 50 μM sodium L-ascorbate, and 2 μM ammonium iron(II) sulfate. Reaction product was determined quantitatively by TR-FRET after the addition of detection reagent Phycolink Streptavidin-allophycocyanin (Prozyme) and Europium-anti-di-methylated histone H3 lysine 9 (H3K9me2) antibody (PerkinElmer) in the presence of 5 mM EDTA in LANCE detection buffer (PerkinElmer) at a final concentration of 50 nM and 1 nM, respectively.
The assay reaction was initiated by the following: 2 μl of the mixture of 900 nM H3K9me3-biotin labeled peptide and 6 μM alpha-ketoglutaric acid with 2 μl of 11-point serial diluted inhibitor in 3% DMSO were added to each well of the plate, followed by the addition of 2 μl of 0.9 nM JMJD2C to initiate the reaction. The reaction mixture was incubated at room temperature for 30 minutes, and terminated by the addition of 6 μl of 5 mM EDTA in LANCE detection buffer containing 100 nM Phycolink Streptavidin-allophycocyanin and 2 nM Europium-anti-H3K9me2 antibody. Plates were read by EnVisionMultilabel Reader in TR-FRET mode (excitation at 320 nm, emission at 615 nm and 665 nm) after 1 hour incubation at room temperature. A ratio was calculated (665/615) for each well and fitted to determine inhibition constant (IC50).
The ability of the compounds disclosed herein to inhibit demethylase activity was quantified and the respective IC50 value was determined. Table 3 provides the IC50 values of various compounds disclosed herein.
In general terms: In TR-FRET formats the signal depends on donor and acceptor labels being close together.

Assay [1] has as its system KYSE-150 esophageal carcinoma cell line. Put plainly: In vitro cell-based assay: BrdU incorporation cell proliferation ELISA. The arrangement: species or system human. Conditions: KYSE-150 cells, 168 hours compound incubation, read-out: Cellular IC50. How it is done:
Cell lines tested include the JMJD2C gene amplified cell line KYSE-150. This is a quantitative ELISA assay measuring DNA incorporation of BrdU during S-phase as a direct readout of cellular proliferation.
Assay Principle: This is a colorimetric immunoassay for the quantification of cell proliferation. Cells treated for 168 hours with test compounds are assayed for their ability to go through S-phase as a measure of their proliferative potential.
Assay Method: The human KYSE-150 (SMAD4 mut, TP53 mut) esophageal carcinoma cell line was seeded at 2,000 cells/well on a 96-well tissue culture treated plate. After an overnight incubation, cells were treated with compound in an 11-point dilution series with final concentrations ranging from 100 μM to 2 nM. Cells were then incubated in the presence of compound for 168 hours. After compound incubation the cells were assayed using a BrdU Cell Proliferation ELISA (Roche). The cells were first incubated with BrdU labeling reagent for 2 hours. After 2 hours, the BrdU incorporated cells were fixed and denatured, probed with an anti-BrdU-Peroxidase antibody for 1.5 hours and washed. Finally, a tetramethylbenzidine peroxidase substrate was added to each well for 15 minutes followed by a H2SO4 stop solution. The plate was read at 450 nm, and the raw optical density data was transferred into XLFit (IDBS) for IC50 calculation using the formula: fit=(D+((Vmax*(x^n))/((x^n)+(Km^n))))
Table 4 provides the cellular IC50 values of various compounds disclosed herein.
Background: Dividing cells build labelled thymidine or BrdU into new DNA.

Each structure is given as a SMILES string. Like-named read-outs stand apart in the source and are kept apart here. Some results are limits rather than exact numbers.

Sequence of JMJD2C (Q9H3R0 2-372): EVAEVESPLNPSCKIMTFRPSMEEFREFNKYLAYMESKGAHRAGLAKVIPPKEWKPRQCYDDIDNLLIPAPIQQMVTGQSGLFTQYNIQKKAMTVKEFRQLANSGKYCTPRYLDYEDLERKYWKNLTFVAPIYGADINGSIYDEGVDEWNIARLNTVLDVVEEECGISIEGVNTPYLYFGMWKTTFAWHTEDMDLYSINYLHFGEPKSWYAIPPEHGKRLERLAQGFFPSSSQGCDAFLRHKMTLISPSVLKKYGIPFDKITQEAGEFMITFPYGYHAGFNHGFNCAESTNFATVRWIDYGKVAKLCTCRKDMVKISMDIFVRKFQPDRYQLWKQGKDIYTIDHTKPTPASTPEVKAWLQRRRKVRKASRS

A word on the IC50: it is the concentration that gives 50% inhibition. On to `CN(c1ccc(Cl)cc1)c1ccc(Oc2nc(O)c3ccncc3n2)cc1` [Example 94, 2-[4-(4-chloro-N-methylanilino)phenoxy]pyrido[3,4-d]pyrimidin-4-ol], for which the IC50 (against JMJD2C; in assay [1] (Homo sapiens)) was 100 to 1000 nM in each case.

On to `CN(c1ccc(Oc2nc(O)c3ccncc3n2)cc1)c1cccc(S(C)(=O)=O)c1` [Example 56, 2-[4-(N-methyl-3-methylsulfonylanilino)phenoxy]pyrido[3,4-d]pyrimidin-4-ol], for which the half-maximal inhibitory concentration (IC50) at JMJD2C is 100 to 1000 nM; in assay [1] (Homo sapiens) it was over 10000 nM.

With `CC(CCN(C)C)c1ccc(N(C)c2ccc(Oc3nc(O)c4ccncc4n3)cc2)cc1` (centres unmarked) [Example 115, 2-(4-{[4-(3-dimethylamino-1-methyl-propyl)-phenyl]-methyl-amino}-phenoxy)-pyrido[3,4-d]pyrimidin-4-ol], the IC50 at JMJD2C was at most 100 nM; in assay [1] (Homo sapiens) it was over 10000 nM.

As for `CN(CC1CCc2ccccc21)c1ccc(Oc2nc(O)c3ccncc3n2)cc1` (centres unmarked) [Example 62, 2-[4-[2,3-dihydro-1H-inden-1-ylmethyl(methyl)amino]phenoxy]pyrido[3,4-d]pyrimidin-4-ol], the values for the IC50 (on JMJD2C; in assay [1] (Homo sapiens)) were 100 to 1000 nM and 1000 to 10000 nM, respectively.

Take `CN(c1ccc(Oc2nc(O)c3ccncc3n2)cc1)c1cccc(N2CCOCC2)c1` [Example 19, 2-{4-[Methyl-(3-morpholin-4-yl-phenyl)-amino]-phenoxy}-pyrido[3,4-d]pyrimidin-4-ol]: the IC50 (at JMJD2C; in assay [1] (Homo sapiens)) was 100 to 1000 nM throughout.

For `CCCc1ccc(N(C)c2ccc(Oc3nc(O)c4ccncc4n3)cc2)cc1` [Example 69, 2-[4-(N-methyl-4-propylanilino)phenoxy]pyrido[3,4-d]pyrimidin-4-ol], the IC50 against JMJD2C was 1000 to 10000 nM; in assay [1] (Homo sapiens) it was at most 100 nM.

With `CN1CCCN(c2cccc(N(C)c3ccc(Oc4nc(O)c5ccncc5n4)cc3)c2)CC1` [Example 88, 2-[4-[N-methyl-3-(4-methyl-1,4-diazepan-1-yl)anilino]phenoxy]pyrido[3,4-d]pyrimidin-4-ol], the IC50 on JMJD2C is at most 100 nM; in assay [1] (Homo sapiens), over 10000 nM.

In the case of `CN(c1ccc(OCC2CC2)cc1)c1ccc(Oc2nc(O)c3ccncc3n2)cc1` [Example 101, 2-[4-[4-(cyclopropylmethoxy)-N-methylanilino]phenoxy]pyrido[3,4-d]pyrimidin-4-ol], the results for the IC50 (against JMJD2C; in assay [1] (Homo sapiens)) were 1000 to 10000 nM and 100 to 1000 nM, respectively.

Take `Oc1nc(Oc2ccc(N3CCC(c4ccccc4)C3)cc2)nc2cnccc12` (centres unmarked) [Example 54, 2-[4-(3-phenylpyrrolidin-1-yl)phenoxy]pyrido[3,4-d]pyrimidin-4-ol]: the values for the IC50 (against JMJD2C; in assay [1] (Homo sapiens)) were 1000 to 10000 nM and over 10000 nM, respectively.

Take `CN(c1ccc(Oc2nc(O)c3ccncc3n2)cc1)c1cccc(Cl)c1` [Example 95, 2-[4-(3-chloro-N-methylanilino)phenoxy]pyrido[3,4-d]pyrimidin-4-ol]: the IC50 (against JMJD2C; in assay [1] (Homo sapiens)) was 1000 to 10000 nM in each case.

Take `CC[C@@H](C)c1ccc(N(C)c2ccc(Oc3nc(O)c4ccncc4n3)cc2)cc1` [Example 78, 2-[4-[4-[(2R)-butan-2-yl]-N-methylanilino]phenoxy]pyrido[3,4-d]pyrimidin-4-ol]: the values for the IC50 (against JMJD2C; in assay [1] (Homo sapiens)) were 1000 to 10000 nM and at most 100 nM, respectively.

Regarding `CC(c1ccc(N(C)c2ccc(Oc3nc(O)c4ccncc4n3)cc2)cc1)C(F)(F)F` (centres unmarked) [Example 108, 2-[4-[N-methyl-4-(1,1,1-trifluoropropan-2-yl)anilino]phenoxy]pyrido[3,4-d]pyrimidin-4-ol], the IC50 against JMJD2C is 100 to 1000 nM; in assay [1] (Homo sapiens), at most 100 nM.

As for `CN(c1ccc(Oc2nc(O)c3ccncc3n2)cc1)c1ccccc1F` [Example 96], the values for the IC50 (against JMJD2C; in assay [1]) were 100 to 1000 nM and 1000 to 10000 nM, respectively.

With `CC[C@H](C)c1ccc(N(C)c2ccc(Oc3nc(O)c4ccncc4n3)cc2)cc1` [Example 77, 2-[4-[4-[(2S)-butan-2-yl]-N-methylanilino]phenoxy]pyrido[3,4-d]pyrimidin-4-ol], the IC50 against JMJD2C is 1000 to 10000 nM; in assay [1] (Homo sapiens) it was at most 100 nM.

As for `Oc1nc(Oc2ccc3c(ccn3C3CCOCC3)c2)nc2cnccc12` [Example 91, 2-[1-(oxan-4-yl)indol-5-yl]oxypyrido[3,4-d]pyrimidin-4-ol], the IC50 was 100 to 1000 nM on JMJD2C and over 10000 nM in assay [1] (Homo sapiens).

For the compound `Oc1nc(Oc2ccc(N3CCOC(c4ccccc4)C3)cc2)nc2cnccc12` (centres unmarked) [Example 26, 2-[4-(2-phenyl-morpholin-4-yl)-phenoxy]-pyrido[3,4-d]pyrimidin-4-ol], the IC50 at JMJD2C is 100 to 1000 nM; in assay [1] (Homo sapiens), over 10000 nM.

Consider `CN(c1ccc(Oc2nc(O)c3ccncc3n2)cc1)c1ccc(N2CCCC2)cc1` [Example 49, 2-[4-(N-methyl-4-pyrrolidin-1-ylanilino)phenoxy]pyrido[3,4-d]pyrimidin-4-ol], for which the IC50 lay in the range of 1000 to 10000 nM at JMJD2C and 100 to 1000 nM in assay [1] (Homo sapiens).

On to `CNCC(C)c1ccc(N(C)c2ccc(Oc3nc(O)c4ccncc4n3)cc2)cc1` (centres unmarked) [Example 70, 2-[4-[N-methyl-4-[1-(methylamino)propan-2-yl]anilino]phenoxy]pyrido[3,4-d]pyrimidin-4-ol], for which the results for the IC50 (at JMJD2C; in assay [1] (Homo sapiens)) were at most 100 nM and over 10000 nM, respectively.

For `CN(c1ccc(Oc2nc(O)c3ccncc3n2)cc1)c1cccc(C(F)(F)F)c1` [Example 86, 2-[4-[N-methyl-3-(trifluoromethyl)anilino]phenoxy]pyrido[3,4-d]pyrimidin-4-ol], the IC50 against JMJD2C was in the range of 1000 to 10000 nM; in assay [1] (Homo sapiens) it was 100 to 1000 nM.

As for `CN(c1ccc(Oc2nc(O)c3ccncc3n2)cc1)c1ccc(C(C)(C)O)cc1` [Example 64, 2-[4-[4-(2-hydroxypropan-2-yl)-N-methylanilino]phenoxy]pyrido[3,4-d]pyrimidin-4-ol], the 50% inhibitory concentration (IC50) (against JMJD2C; in assay [1] (Homo sapiens)) was 100 to 1000 nM each time.

For the compound `CN(c1ccc(Oc2nc(O)c3ccncc3n2)cc1)c1ccnc(N2CCOCC2)c1` [Example 61, 2-[4-[methyl-(2-morpholin-4-ylpyridin-4-yl)amino]phenoxy]pyrido[3,4-d]pyrimidin-4-ol], the values for the IC50 (against JMJD2C; in assay [1] (Homo sapiens)) were at most 100 nM and over 10000 nM, respectively.

Consider `CN(c1ccc(Oc2nc(O)c3ccncc3n2)cc1)c1ccc(N2CCC(N)CC2)cc1` [Example 23, 2-(4-{[4-(4-amino-piperidin-1-yl)-phenyl]-methyl-amino}-phenoxy)-pyrido[3,4-d]pyrimidin-4-ol], for which the figures for the IC50 (against JMJD2C; in assay [1] (Homo sapiens)) were 100 to 1000 nM and 1000 to 10000 nM, respectively.

For the compound `CN(c1ccc(Oc2nc(O)c3ccncc3n2)cc1)c1cccc(N2CCCC(N)C2)c1` (centres unmarked) [Example 58, 2-[4-[3-(3-aminopiperidin-1-yl)-N-methylanilino]phenoxy]pyrido[3,4-d]pyrimidin-4-ol], the IC50 at JMJD2C was at most 100 nM; in assay [1] (Homo sapiens), over 10000 nM.

Take `CN(c1ccc(Oc2nc(O)c3ccncc3n2)cc1)c1ccc(C(C)(C)CO)cc1` [Example 68, 2-[4-[4-(1-hydroxy-2-methylpropan-2-yl)-N-methylanilino]phenoxy]pyrido[3,4-d]pyrimidin-4-ol]: the IC50 (on JMJD2C; in assay [1] (Homo sapiens)) was 100 to 1000 nM each time.

With `COCCN(C)CC(C)c1ccc(N(C)c2ccc(Oc3nc(O)c4ccncc4n3)cc2)cc1` (centres unmarked) [Example 38, 2-{4-[(4-{2-[(2-methoxy-ethyl)-methyl-amino]-1-methyl-ethyl}-phenyl)-methyl-amino]-phenoxy}-pyrido[3,4-d]pyrimidin-4-ol], the IC50 on JMJD2C is 100 to 1000 nM; in assay [1] (Homo sapiens), at most 100 nM.
